From patent US20130288364A1, “ENGINEERED KINETOCHORES AND USES THEREOF” (Whitehead Institute for Biomedical Research, priority 2010, published 2013)

Tested on: U2OS-LacO cells
Experiment: Interaction of LacI foci with spindle microtubules (foci shape)
Type: cell-based, human
Settings: 2 μM
Description: We next sought to test the interaction of these foci with spindle microtubules. […] This deformation of the LacI foci could represent microtubules binding the structure to opposite spindle poles. In such a situation, tension across the region would result in a change in the shape of the chromatin. Consistent with microtubule interactions with the foci, the deformed shape of the GFP-CENP-T-ΔC-LacI focus was dependent on microtubules, as nocodazole treatment relaxed this to a circular morphology, with an average length to width ration of 1.15 (FIG. 6B). See also FIG. 8. Deformation of the GFP-CENP-T-ΔC-LacI focus was exacerbated by treatment with the Aurora B inhibitor ZM447439, which has been proposed to regulate both kinetochore-microtubule attachments (Cheeseman and Desai, 2008) and chromatinstructure (Lipp et al., 2007).
Immunofluorescence in human cells was conducted as described previously (Kline et al., 2006). […]

## COc1cc2c(Nc3ccc(NC(=O)c4ccccc4)cc3)ncnc2cc1OCCCN1CCOCC1 [ZM447439]
  effect on deformation of the GFP-CENP-T-ΔC-LacI focus: exacerbated
